One series deals with human GLP-1R. Conditions: 10 nM tracer; for reduction of [^68Ga]Ga-DO3A-Exendin-4 binding: 60 min, RT, p < 0.0001.
The subject of series [1] is GLP-1R.
Description: Pigs (n = 9) were positioned in the PET/CT scanner (Discovery MI, GE Healthcare) in a supine position with the brain at the centre of the Field of View (FOV). […] The peptide mass dose was chosen to avoid self-block of the GLP-1R by unlabelled DO3A-Exendin-4 peptide in the formulation and was based on previous dose-escalation studies in non-human primates.[23] A dynamic 60-min PET scan was started at tracer injection, serving as the baseline scan to visualise and quantify GLP-1R expression under normal physiological conditions prior to drug intervention. Following the dynamic scan, a whole-body CT was acquired, immediately followed by a whole-body static PET scan covering the regions from the brain to the bladder.
One experiment used unlabelled DO3A-VS-Exendin-4 (6 μg/kg) as a positive control (Table 4).
The follow-up scan was designed to assess the decreased binding of the tracer to its receptor, which, when compared to the baseline scan, would indicate reduced receptor availability, such as that caused by drug occupancy at the target GLP-1 receptor.
The reconstructed dynamic and whole-body static PET images were analysed using PMOD Base Functionality (PBAS) tool (PMOD Technologies LLC, Zurich, Switzerland) through manual segmentation on trans-axial PET and CT projections. Segmented tissues included the descending aorta, pancreas, liver, spleen, kidneys, and muscle. The tracer distribution in brain regions was measured by automated segmentation of brain regions. This was achieved by fusing the acquired PET dynamic images with the PMOD MRI pig brain atlas. […] CVOs, such as pituitary gland, were not included in the brain atlas and were thus segmented manually.
(§2) The convention to the SUV was corrected to the time and administered amount of radioactivity (in MBq) and the weight (in kilograms) of the pig.
The target engagement or drug occupancy for each experiment was calculated by subtracting the SUV in a tissue at the follow-up scan from the SUV in the same tissue at the baseline scan. The difference was divided by the SUV in tissue at baseline and multiplied by 100 to reach the percentage of drug occupancy (Equation 1):Equation 1 Occupancy(%)=SUVbaseline−SUVfollow−up/SUVbaseline×100
All PET measurements were expressed as average SUVmean.
For series [2] the following is noted: cited from earlier work. An excerpt: (§1) This can likely be explained by the lower GLP-1R affinity of tirzepatide, which instead is shifted towards higher affinity to the GIPR.[26]
Series [3] deals with GIPR. Particulars: in vitro; cited from earlier work.
Description: as §1

For series [4], the system named is GLP-1R. Particulars: in vitro; cited from earlier work.
Description: as §1

For series [5] the following is noted: cited from earlier work. An excerpt: Tirzepatide is the first dual GLP-1R/GIPR agonist approved for the treatment of type 2 diabetes (T2D).[11]
This is another data set of the same source.

Series [6] deals with GIPR. The series is described as follows: In vivo GIPR drug occupancy in pigs using [^68Ga]S02-GIP-T4 PET. Also on record: species or system pig. Conditions: infusion 0.5/50 μg/ml from 30 min before and throughout second scan, n = 1.
Description: The study design for GIPR occupancy assessment in pigs was identical to that of GLP-1R, except for the following differences:
The pigs (n = 5) were positioned in the PET/CT scanner in a supine position with either the brain (n = 2) or the pancreas (n = 3) in the FOV when using [^68Ga]S02-GIP-T4. A target dose of 0.5–1 MBq/kg of [^68Ga]S02-GIP-T4, corresponding to a standardised peptide mass dose of 0.1 μg/kg, was administered for both baseline and follow-up scans (Tables 5 and 6). The peptide mass dose was chosen to avoid self-block of the GIPR, and based on previous dose-escalation studies in non-human primates.[16]
SAR441255 was administered subcutaneously at a dose of 100 μg/kg in four pigs, as described above (Table 5). […]
The reconstructed dynamic and whole-body static PET images were analysed using PMOD Base Functionality (PBAS) tool (PMOD Technologies LLC, Zurich, Switzerland) through manual segmentation on trans-axial PET and CT projections. […] The tracer distribution in brain regions was measured by automated segmentation of brain regions. […]
as §2
The target engagement or drug occupancy for each experiment was calculated by subtracting the SUV in a tissue at the follow-up scan from the SUV in the same tissue at the baseline scan. […]
The subject of the next series is mice. Particulars: central administration; cited from earlier work. The source says: One of the advancements of GLP-1R/GIPR co-activation is potentially the reduced nausea, food aversion, and emesis associated with GLP-1R-based treatment, in addition to an even more increased reduction in appetite and calorie intake.[26]^,[39] These effects may be associated with central activation of GLP-1 receptors by these drugs, and it has been proposed that the concurrent activation of central GIPR by tirzepatide exerts an anti-emetic effect, thereby improving tolerability to GLP-1 receptor–mediated side effects.

Where [7] appears, read: even at highest doses (450 μg/kg) s.c.
The mark [8] stands for this setting: pre-administration of unlabelled peptide as positive control, 6 μg/kg / 10 μg/kg (Table 4), n = 1.

The text below walks through data of publication PMC12682123, “Positron emission tomography to assess drug occupancy at peripheral and central incretin receptors” (eBioMedicine, 2025).

Read-outs that look alike come from different tables or passages of the source. No end group written: not given here. A value given as a limit tells only on which side of the number the result lay.

A word on the Tmax: it is the time at which the peak concentration occurs.

Description for human GLP-1R: The receptor specificity assay was repeated four times.
The following procedures were then performed for both assays: After incubation, the sections were washed with cold PBS (3× 1 min), dipped in MilliQ water, and air-dried at 37 °C for 10 min. Finally, the sections were exposed to digital phosphorimager plates (BAS-MS, Fujifilm) overnight (>10 radioactive half-lives) followed by digitalisation using a phosphorimage scanner (Amersham Typhoon FLA 9500 Phosphor Imager, GE) with a 50-μm pixel size for image visualisation. A 10 μl reference droplet, containing a known amount of radioactivity, was incorporated to facilitate the quantification of the autoradiogram.
The pixel values, measured in counts/mm^2, were transformed into Bq/mm^2 using the internal reference.

Take “tirzepatide: first dual GLP-1R/GIPR agonist approved for the treatment of type 2 diabetes”: in the series on human GLP-1R (10 μM), the “competition with [^68Ga]Ga-DO3A-Exendin-4 at GLP-1R” value is listed as “competed for an overlapping binding site of GLP-1R”. Besides, in the series on human GLP-1R (pre-incubated with 10 μM), the “reduction of [^68Ga]Ga-DO3A-Exendin-4 binding” value is reported as 84.9 ± 7%. Moreover, in the series on GLP-1R [1] (50–450 μg/kg s.c., experimental design not aligned with Tmax), the “occupancy in appetite-regulating brain regions” value is on record as “did not show detectable occupancy”. Besides, in the series with GLP-1R [1] (setting [7]), the “GLP-1R occupancy in pancreas, did not exceed” value was ≤ 60% and the “GLP-1R occupancy in pituitary, did not exceed” value is reported as ≤ 60%. The “Tmax (in words)” value in series [2] (extended plasma half-life, no reference given) is “on the order of days”. The time of peak concentration (Tmax) in series [2] (subcutaneous) is 8 to 72 h. For the same substance, the “affinity to GIPR vs endogenous GIP(1–42)” value in the series with GIPR [3] is reported as “same affinity”. In addition, in the series with GLP-1R [4], the “affinity to GLP-1R vs native GLP-1” value is on record as “fivefold lower affinity”. Further, in series [5], the “glucose-lowering effect vs mono GLP-1R agonism” value is “greater glucose-lowering effect” and the “weight reduction vs mono GLP-1R agonism” value is “greater weight reduction”.
For “DO3A-Exendin-4: unlabelled peptide used for blocking, positive control; made by in-house SPPS by Sanofi”, the “reduction of [^68Ga]Ga-DO3A-Exendin-4 binding” value in the series on human GLP-1R (pre-incubated with 1 μM (10 min, PBS + 1% BSA)) is recorded as 80 ± 16%. Besides, in the series on GLP-1R [1] (setting [8]), the “decrease of [^68Ga]Ga-DO3A-Exendin-4 uptake in pancreas” value came to 73%, the “decrease of [^68Ga]Ga-DO3A-Exendin-4 uptake in pituitary gland” value is given as 53%, the “reduction of [^68Ga]Ga-DO3A-Exendin-4 uptake in hypothalamic region” value came out at 55% and the “reduction of [^68Ga]Ga-DO3A-Exendin-4 uptake in mammillary body” value came to 60%.
Consider “glucose-dependent insulinotropic polypeptide [GIP (1–42)]”, for which, in the series on GIPR [6], the “decrease of pancreatic [^68Ga]S02-GIP-T4 signal” value was determined as 24%. In addition, the food intake entry in the series with mice is listed as “reduced food intake”.
For the substance “glucagon-like peptide-1 (HAEGTFTSDVSSYLEGQAAKEFIAWLVKGR; ends and bridges not checked; UniProt P01275 98-127, looked up) [GLP-1, endogenous incretin hormone]”, the food intake entry in the series on mice was “reduced food intake”.
